In patent publication US12692232B2, “Indole carboxamide compound, preparation therefor and use thereof” (NANJING RUISHUNING MEDICAL TECHNOLOGY CO., LTD., priority 2021, dated 2026):

Legend:
[1] = Stability at high temperature and high humidity (residual content); format: physicochemical
Protocol: The stability of compounds 1-1, 2-1 and the indole analogue 3-[(1-methyl-1H-indole-2-carbonyl) amino]propionic acid disclosed in CN2019107285315 was tested by experiments at high temperature and high humidity. The compounds were placed in 24-well plates, spread as a thin layer with a thickness of no more than 5 mm and placed in an oven at 60° C. for 10 days. Observation of appearance, TLC identification and determination of absorbance were carried out on the 5th day and the 10th day, respectively, in order to compare with the samples on the 0th day. An amount of compounds were taken into tightly closed brown colored penicillin bottles (the compounds were spread as a thin layer with a thickness of no more than 5 mm) and then placed into a tightly closed container with saturated NaCl solution and left at room temperature away from light for 10 days. Observation of appearance, TLC identification and determination of absorbance were carried out on the 5th day and the 10th day, respectively, in order to compare with the samples on the 0th day.

[2] = biological target: T1, TRPC6 channel (Homo sapiens, UniProt Q9Y210); experiment: In vitro binding to TRPC6 protein by microscale thermophoresis (MST); set-up: fused on or other part: NT-647-NHS fluorescent dye label (chemical labelling for MST)
T1 sequence (Q9Y210 1-931): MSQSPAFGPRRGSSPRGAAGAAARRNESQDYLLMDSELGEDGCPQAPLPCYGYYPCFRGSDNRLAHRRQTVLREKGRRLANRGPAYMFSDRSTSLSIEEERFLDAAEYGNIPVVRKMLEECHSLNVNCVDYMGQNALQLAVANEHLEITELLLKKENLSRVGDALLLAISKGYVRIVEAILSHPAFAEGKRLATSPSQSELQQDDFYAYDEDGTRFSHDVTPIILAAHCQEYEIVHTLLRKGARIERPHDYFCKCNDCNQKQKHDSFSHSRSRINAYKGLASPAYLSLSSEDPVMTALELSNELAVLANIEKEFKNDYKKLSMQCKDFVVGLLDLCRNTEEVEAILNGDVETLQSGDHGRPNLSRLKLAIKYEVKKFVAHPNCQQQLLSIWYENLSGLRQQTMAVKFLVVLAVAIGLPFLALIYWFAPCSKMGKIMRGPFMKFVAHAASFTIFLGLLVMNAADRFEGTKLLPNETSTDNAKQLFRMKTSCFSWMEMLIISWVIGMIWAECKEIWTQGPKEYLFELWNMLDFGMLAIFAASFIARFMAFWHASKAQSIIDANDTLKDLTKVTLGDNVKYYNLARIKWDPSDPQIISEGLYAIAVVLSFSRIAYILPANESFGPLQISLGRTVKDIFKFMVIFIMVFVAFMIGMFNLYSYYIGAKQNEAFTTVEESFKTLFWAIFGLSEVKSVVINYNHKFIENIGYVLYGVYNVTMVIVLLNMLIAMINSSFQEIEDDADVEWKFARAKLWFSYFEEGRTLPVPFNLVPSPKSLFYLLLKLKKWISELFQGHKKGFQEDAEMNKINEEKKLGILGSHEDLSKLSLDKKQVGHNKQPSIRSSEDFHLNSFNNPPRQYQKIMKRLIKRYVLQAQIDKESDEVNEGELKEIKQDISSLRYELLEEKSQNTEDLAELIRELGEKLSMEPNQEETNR
Protocol: The binding ability of the compounds of the present invention (as exemplified by the compounds obtained in Examples 1 to 3) to the TRPC6 protein was determined using the microscale thermophoresis (MST) method. The method was as follows:
Preparation and labelling of protein solution: TRPC6 protein dry powder (Alomone Labs, Israel) was prepared into a protein mother solution at a concentration of 10 μM using PBS-Buffer, and 35 μL of the protein stock solution was taken to the Buffer exchange A column, and centrifuged to obtain the Tris-removed protein. 34 μL Labelling Buffer was added to the Tris-removed protein according to the instructions of the Protein Fluorescent Labelling Kit (model L001). After mixing well, 3 μL of NT-647-NHS fluorescent dye was added and thus obtained mixture was incubated for 20 minutes. The protein-dye mixture was transferred to the purification B column, 300 μL of PBS-Buffer was added, and the target protein, i.e. fluorescent labelled protein TRPC6, was collected by centrifugation (with a final concentration of about 2 μM). 180 μL of target protein was mixed with 1620 μL of PBS-Buffer, and then 9 μl of Tween-20 were added thereto. Thus the resulting mixture was mixed and then centrifuged to obtain the target protein solution.
Preparation of compound solutions: the compounds were prepared separately with DMSO to storage solutions with a concentration of 10 μM. 10 μL of each storage solution was placed in a […] EP tube, 90 μL of PBS was added thereto and the resulting mixture was thoroughly mixed to prepare 100 μL of working solution at a concentration of 1 μM for later use. Ligand gradient dilutions were made for a total of 16 concentrations, and 10 μL of 10% DMSO-Buffer was added to each of the 15 gradients except gradient 1, followed by the addition of 10 μL of ligand working solution to gradients 1 and 2, respectively. The liquid in tube 2 was mixed and then 10 μL therein was taken into tube 3, and dilution was carried out in this manner until tube 16. […]

[3] = high humidity environment (saturated NaCl, room temperature, away from light), after 5 days
[4] = high humidity environment (saturated NaCl, room temperature, away from light), after 10 days
[5] = high temperature environment (oven at 60° C.), after 5 days
[6] = high temperature environment (oven at 60° C.), after 10 days

Row | Compound | residual content [1, 3] [%] | residual content [1, 4] [%] | residual content [1, 5] [%] | residual content [1, 6] [%] | Kd [2] [µM]
1 | Cn1c(C(=O)NCCC(=O)O)cc2ccccc21 [3-[(1-methyl-1H-indole-2-carbonyl)amino]propionic acid, reference compound] | 29.5±0.1 | 8.8±0.1 | 23.1±0.1 | 4.2±0.1 | 29.78 ± 0.26
2 | CC(=O)OCCCNC(=O)c1c(C=O)c2ccccc2n1C [compound 1-1, propyl 3-[(3-formyl-1-methyl-1H-indole-2-carbonyl)amino]acetate] | 93.5±0.4 | 90.7±0.3 | 95.4±08 | 94.2±0.6 | 12 ± 3.61
3 | Cn1c(C(=O)NCCCOC(=O)c2ccccc2)c(C=O)c2ccccc21 [compound 2-1] | 94.2±0.3 | 90.1±0.8 | 93.6±0.6 | 91.7±0.5 | 19 ± 3.15
